Reference: patent US6365314B1, “Toner for developing electrostatic image, image forming method and process cartridge” (Canon Kabushiki Kaisha, priority 1994, dated 2002)

Test: Solubility measurement of charge control agent in methanol
Format: physicochemical
Conditions: stirred 1 hour at 50° C., cooled to room temperature, 0.1 μm-filter, absorbance vs 20 ppm standard
Protocol: The solubility of the charge control agent may be measured in the following manner.
<Solubility measurement of charge control agent>
2 g of a charge control agent is weighed and placed in a 300 ml Erlenmeyer flask to which 100 ml of methanol is added. The system is heated to 50° C. under stirring and the stirring is further continued for 1 hour (when all the charge control agent is dissolved, the charge control agent is further added successively at an increment of 2 g each under continued stirring). Then, the system is cooled to room temperature and the insoluble charge control agent is removed by a 0.1 μm-filter to measure the absorbance (A) of the solution at a maximum absorption wavelength by using a spectrophotometer.
wherein I denotes a transmitted light intensity through a solution, I0 denotes a transmitted light intensity through a solvent (=methanol), ε0 denotes an absorption coefficient, C denotes the concentration of the charge control agent, and d denotes the thickness of the solution for the absorbance measurement.

Structure (SMILES)	SMeOH (solubility in methanol)	SMeOH (solubility in methanol) (listed as Azo-type iron complex (1))
O=C(Nc1ccccc1)c1cc2ccccc2c2c1[O][Fe]1([O]c3ccc(Cl)cc3N=N2)[O]c2ccc(Cl)cc2N=Nc2c(c(C(=O)Nc3ccccc3)cc3ccccc23)[O]1 (stereo not shown) [Complex (1)]	SMeOH = 0.87 g/100 ml)	0.87 g/100 ml)
O=C(Nc1ccccc1)c1cc2ccccc2c2c1[O][Fe]1([O]c3c(Cl)cc(Cl)cc3N=N2)[O]c2c(Cl)cc(Cl)cc2N=Nc2c(c(C(=O)Nc3ccccc3)cc3ccccc23)[O]1 (stereo not shown) [Complex (2)]	SMeOH = 0.75 g/100 ml)	–
O=C(Nc1cccc([N+](=O)[O-])c1)c1cc2ccccc2c2c1[O][Fe]1([O]c3ccc(Cl)cc3/N=N/2)[O]c2ccc(Cl)cc2/N=N/c2c(c(C(=O)Nc3cccc([N+](=O)[O-])c3)cc3ccccc23)[O]1 [Complex (3)]	SMeOH = 0.71 g/100 ml)	–
O=C(Nc1cccc([N+](=O)[O-])c1)c1cc2ccccc2c2c1[O][Fe]1([O]c3c(cc(Cl)cc3[N+](=O)[O-])/N=N/2)[O]c2c(cc(Cl)cc2[N+](=O)[O-])/N=N/c2c(c(C(=O)Nc3cccc([N+](=O)[O-])c3)cc3ccccc23)[O]1 [Complex (4)]	SMeOH = 0.65 g/100 ml)	–
Cc1ccccc1NC(=O)c1cc2ccccc2c2c1[O][Fe]1([O]c3cc(Cl)c([N+](=O)[O-])cc3/N=N/2)[O]c2cc(Cl)c([N+](=O)[O-])cc2/N=N/c2c(c(C(=O)Nc3ccccc3C)cc3ccccc23)[O]1 [Complex (5)]	SMeOH = 0.65 g/100 ml)	–
Cc1ccccc1NC(=O)c1cc2ccccc2c2c1[O][Fe]1([O]c3ccccc3N=N2)[O]c2ccccc2N=Nc2c(c(C(=O)Nc3ccccc3C)cc3ccccc23)[O]1 (stereo not shown) [Complex (6)]	SMeOH = 0.76 g/100 ml)	–
